Results from PubChem BioAssay AID248 (DTP/NCI, 2004).
Where “and” joins values, the source holds several entries; their conditions need not be identical. Equal entries are not always repeated. Toxic doses and inconclusive results are not listed.

Test system: L1210 leukemia ip in BDF1 mice, survival T/C
Test: NCI In Vivo Anticancer Drug Screen. Data for tumor model L1210 Leukemia (intraperitoneal) in B6D2F1 (BDF1) mice
Settings: endpoint: mean survival time, higher = longer survival
Summary of the method: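 Antitumor effect is assessed in tumor-bearing animals. Survival in the compound arm is compared with a vehicle-dosed control arm and expressed as their quotient.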

[1] = dose: 100.0 mg/kg/injection, schedule: Q01DX009 (ip), vehicle: saline
[2] = dose: 100.0 mg/kg/injection, schedule: Q04DX003 (ip), vehicle: saline
[3] = dose: 200.0 mg/kg/injection, schedule: Q01DX009 (ip), vehicle: saline
[4] = dose: 200.0 mg/kg/injection, schedule: Q04DX003 (ip), vehicle: saline
[5] = dose: 400.0 mg/kg/injection, schedule: Q01DX009 (ip), vehicle: saline
[6] = dose: 400.0 mg/kg/injection, schedule: Q04DX003 (ip), vehicle: saline
[7] = dose: 100.0 mg/kg/injection, schedule: Q01DX001 (ip), vehicle: saline
[8] = dose: 50.0 mg/kg/injection, schedule: Q01DX001 (ip), vehicle: saline
[9] = dose: 200.0 mg/kg/injection, schedule: Q01DX001 (ip), vehicle: saline
[10] = dose: 400.0 mg/kg/injection, schedule: Q01DX001 (ip), vehicle: saline

SMILES: Oc1c(Cl)cc(Cl)cc1Sc1cc(Cl)cc(Cl)c1O
- T/C (dose: 100.0 mg/kg/injection, schedule: Q04DX002 (ip), vehicle: saline): 114 % of control
- T/C (dose: 200.0 mg/kg/injection, schedule: Q04DX002 (ip), vehicle: saline): 100 % of control
- T/C (dose: 400.0 mg/kg/injection, schedule: Q04DX002 (ip), vehicle: saline): 114 % of control

SMILES: CN(C)C(=O)Nc1ccc(Cl)c(Cl)c1
- T/C [1]: 94 % of control
- T/C [2]: 103 % of control
- T/C [3]: 102 % of control
- T/C [4]: 102 % of control
- T/C [5]: 93 % of control
- T/C [6]: 96 % of control

SMILES: COc1ccc(/C=N/n2c3ccccc3c3ccccc32)cc1OCCN(C)C
- T/C (dose: 3.12 mg/kg/injection, schedule: Q01DX009 (ip), vehicle: Klucel (hydroxypropylcellulose) (HPC)): 96 % of control
- T/C (dose: 6.25 mg/kg/injection, schedule: Q01DX009 (ip), vehicle: Klucel (hydroxypropylcellulose) (HPC)): 101 % of control
- T/C (dose: 12.5 mg/kg/injection, schedule: Q01DX009 (ip), vehicle: Klucel (hydroxypropylcellulose) (HPC)): 97 % of control
- T/C (dose: 25.0 mg/kg/injection, schedule: Q01DX009 (ip), vehicle: Klucel (hydroxypropylcellulose) (HPC)): 102 % of control
- T/C (dose: 25.0 mg/kg/injection, schedule: Q04DX003 (ip), vehicle: Klucel (hydroxypropylcellulose) (HPC)): 98 % of control
- T/C (dose: 50.0 mg/kg/injection, schedule: Q04DX003 (ip), vehicle: Klucel (hydroxypropylcellulose) (HPC)): 96 % of control

SMILES: COc1ccccc1NC(=O)NCc1ccco1
- T/C (dose: 77.0 mg/kg/injection, schedule: Q01DX Z (ip), vehicle: methylcellulose (MC)): 90 % of control
- T/C (dose: 116.0 mg/kg/injection, schedule: Q01DX Z (ip), vehicle: methylcellulose (MC)): 103 % of control
- T/C (dose: 175.0 mg/kg/injection, schedule: Q01DX Z (ip), vehicle: methylcellulose (MC)): 105 % of control

SMILES: C[SH+]c1ccccc1N=Cc1ccccn1.C[SH+]c1ccccc1N=Cc1ccccn1.[Ni+2].[O-][Cl+3]([O-])([O-])[O-]
- T/C (dose: 88.8 mg/kg/injection, schedule: Q01DX001 (ip), vehicle: saline): 93 % of control and 96 % of control
- T/C [7]: 105 % of control
- T/C (dose: 133.4 mg/kg/injection, schedule: Q01DX001 (ip), vehicle: saline): 96 % of control and 105 % of control
- T/C (dose: 300.0 mg/kg/injection, schedule: Q01DX001 (ip), vehicle: saline): 95 % of control and 102 % of control

SMILES: CC(=O)c1ccc(N=C=O)cc1
- T/C (dose: 400.0 mg/kg/injection, schedule: Q01DX001 (ip), vehicle: saline with Tween-80): 95 % of control

SMILES: CCCCOP(=S)(N1CCCCC1)N1CCCCC1
- T/C (dose: 100.0 mg/kg/injection, schedule: Q04DX002 (ip), vehicle: saline with Tween-80): 96 % of control
- T/C (dose: 200.0 mg/kg/injection, schedule: Q04DX002 (ip), vehicle: saline with Tween-80): 96 % of control
- T/C (dose: 400.0 mg/kg/injection, schedule: Q04DX002 (ip), vehicle: saline with Tween-80): 107 % of control

SMILES: Cn1nnc(CC[N+]2(C)CCOCC2)n1
- T/C [2]: 94 % of control
- T/C [4]: 96 % of control

SMILES: COc1ccc(C(=O)N/N=C/c2ccccc2)cc1
- T/C [8]: 102 % of control
- T/C [7]: 98 % of control
- T/C [9]: 98 % of control
- T/C [10]: 98 % of control

SMILES: Cc1cc(Cl)ccc1OC(=O)NC1CCCCC1
- T/C (dose: 100.0 mg/kg/injection, schedule: Q04DX002 (ip), vehicle: Klucel (hydroxypropylcellulose) (HPC)): 107 % of control
- T/C (dose: 200.0 mg/kg/injection, schedule: Q04DX002 (ip), vehicle: Klucel (hydroxypropylcellulose) (HPC)): 96 % of control
- T/C (dose: 400.0 mg/kg/injection, schedule: Q04DX002 (ip), vehicle: Klucel (hydroxypropylcellulose) (HPC)): 107 % of control

SMILES: CCCCCCCCc1cc2c(c3c1CCCC3)CCC1CCCCC21 (centres undefined)
- T/C [7]: 104 % of control
- T/C [9]: 98 % of control
- T/C [10]: 101 % of control

SMILES: CCC1(C)OC(C)C(C)O1 (centres undefined)
- T/C (dose: 50.0 mg/kg/injection, schedule: Q01DX009 (ip), vehicle: saline): 100 % of control
- T/C [1]: 107 % of control
- T/C [3]: 104 % of control

SMILES: O=C(O)COc1ccc(C(=O)c2cc(Br)ccc2OCC(=O)O)cc1
- T/C (dose: 100.0 mg/kg/injection, schedule: Q01DX001 (ip), vehicle: carboxymethylcellulose (CMC)): 105 % of control
- T/C (dose: 200.0 mg/kg/injection, schedule: Q01DX001 (ip), vehicle: carboxymethylcellulose (CMC)): 98 % of control
- T/C (dose: 400.0 mg/kg/injection, schedule: Q01DX001 (ip), vehicle: carboxymethylcellulose (CMC)): 103 % of control

SMILES: CC1CN1P(=O)(N1CC1C)N1CC1C (centres undefined)
- T/C (dose: 13.3 mg/kg/injection, schedule: Q01DX009 (ip), vehicle: saline): 124 % of control
- T/C (dose: 19.0 mg/kg/injection, schedule: Q01DX009 (ip), vehicle: saline): 124 % of control
- T/C (dose: 66.0 mg/kg/injection, schedule: Q01DX001 (ip), vehicle: saline): 163 % of control
- T/C (dose: 99.0 mg/kg/injection, schedule: Q01DX009 (ip), vehicle: saline): 88 % of control
- T/C (dose: 150.0 mg/kg/injection, schedule: Q01DX001 (ip), vehicle: saline): 159 % of control

SMILES: NCCNCCN
- T/C [8]: 102 % of control
- T/C [7]: 116 % of control
- T/C [9]: 104 % of control
- T/C [10]: 108 % of control

SMILES: Cc1ccc(N=C=O)cc1[N+](=O)[O-]
- T/C (dose: 100.0 mg/kg/injection, schedule: Q01DX009 (ip), vehicle: gum acacia): 100 % of control
- T/C (dose: 100.0 mg/kg/injection, schedule: Q04DX003 (ip), vehicle: gum acacia): 98 % of control
- T/C (dose: 200.0 mg/kg/injection, schedule: Q01DX009 (ip), vehicle: gum acacia): 89 % of control
- T/C (dose: 200.0 mg/kg/injection, schedule: Q04DX003 (ip), vehicle: gum acacia): 101 % of control
- T/C (dose: 400.0 mg/kg/injection, schedule: Q01DX009 (ip), vehicle: gum acacia): 94 % of control
- T/C (dose: 400.0 mg/kg/injection, schedule: Q04DX003 (ip), vehicle: gum acacia): 90 % of control

SMILES: Nc1nc(=S)c2n[nH]nc2[nH]1
- T/C (dose: 100.0 mg/kg/injection, schedule: Q01DX001 (ip), vehicle: saline with Tween-80): 94 % of control

SMILES: CC(C)(C)C1CCC(=O)C(Cl)C1 (centres undefined)
- T/C (dose: 100.0 mg/kg/injection, schedule: Q01DX009 (ip), vehicle: Klucel (hydroxypropylcellulose) (HPC)): 94 % of control
- T/C (dose: 100.0 mg/kg/injection, schedule: Q04DX003 (ip), vehicle: alcohol): 94 % of control
- T/C (dose: 200.0 mg/kg/injection, schedule: Q01DX009 (ip), vehicle: Klucel (hydroxypropylcellulose) (HPC)): 95 % of control
- T/C (dose: 200.0 mg/kg/injection, schedule: Q04DX003 (ip), vehicle: alcohol): 92 % of control
- T/C (dose: 400.0 mg/kg/injection, schedule: Q04DX003 (ip), vehicle: alcohol): 87 % of control

SMILES: Cc1ccc(N2CCN(CCCN3CCN(c4ccc(Cl)cc4)CC3)CC2)cc1
- T/C (dose: 8.0 mg/kg/injection, schedule: Q01DX Z (ip), vehicle: carboxymethylcellulose (CMC)): 98 % of control
- T/C (dose: 16.0 mg/kg/injection, schedule: Q01DX Z (ip), vehicle: carboxymethylcellulose (CMC)): 95 % of control
- T/C (dose: 100.0 mg/kg/injection, schedule: Q04DX003 (ip), vehicle: Klucel (hydroxypropylcellulose) (HPC)): 109 % of control

SMILES: CC(=O)c1cc(O)c2ccccc2c1O
- T/C (dose: 100.0 mg/kg/injection, schedule: Q01DX001 (ip), vehicle: water): 98 % of control
- T/C (dose: 200.0 mg/kg/injection, schedule: Q01DX001 (ip), vehicle: water): 89 % of control

SMILES: CCCCCCCCCC[Si](C)(C)C
- T/C [7]: 100 % of control
- T/C [9]: 97 % of control
- T/C [10]: 100 % of control

SMILES: COc1ccc(C)cc1NC(=O)OCCOc1ccc(Br)cc1
- T/C (dose: 50.0 mg/kg/injection, schedule: Q01DX009 (ip), vehicle: saline with Tween-80): 90 % of control
- T/C (dose: 100.0 mg/kg/injection, schedule: Q01DX009 (ip), vehicle: saline with Tween-80): 97 % of control
- T/C (dose: 200.0 mg/kg/injection, schedule: Q01DX009 (ip), vehicle: saline with Tween-80): 87 % of control

SMILES: c1ccc(NN(CN(Nc2ccccc2)c2ccccc2)c2ccccc2)cc1
- T/C (dose: 100.0 mg/kg/injection, schedule: Q01DX001 (ip), vehicle: other): 95 % of control
- T/C (dose: 400.0 mg/kg/injection, schedule: Q01DX001 (ip), vehicle: other): 89 % of control

SMILES: O=S(=O)(O)c1cc(Cl)cc(Cl)c1O
- T/C [1]: 96 % of control
- T/C [2]: 113 % of control
- T/C [3]: 100 % of control
- T/C [4]: 105 % of control
- T/C [5]: 105 % of control
- T/C [6]: 107 % of control
